Test results from ChEMBL document CHEMBL3734682, “PPL catalyzed four-component PASE synthesis of 5-monosubstituted barbiturates: Structure and pharmacological properties” (2015).
Converted amounts (≈) assume the structure as drawn. The source made the active and inactive calls. No cut-off for these calls is given here.

Tests used:
DLA [1] = assay: Induction of apoptosis in Swiss albino mouse DLA cells assessed as chromatin condensation at 25,50 and 100 ug/ml after 12 hrs by AO/EtBr staining based fluorescence microscopic analysis; format: functional, cell-based
Proteus vulgaris = assay: Antibacterial activity against clinical isolates Proteus vulgaris after 24 hrs by agar diffusion assay; format: functional
DLA [2] = assay: Induction of apoptosis in Swiss albino mouse DLA cells assessed as nucleolus pyknosis at 50 and 100 ug/ml after 12 hrs by AO/EtBr staining based fluorescence microscopic analysis; format: functional, cell-based
DLA [3] = assay: Induction of apoptosis in Swiss albino mouse DLA cells assessed as nuclear fragmentation at 50 and 100 ug/ml after 12 hrs by AO/EtBr staining based fluorescence microscopic analysis; format: functional, cell-based
Bacillus subtilis = assay: Antibacterial activity against clinical isolate Gram-positive Bacillus subtilis after 24 hrs by agar diffusion assay; format: functional
[4] = Induction of apoptosis in Swiss albino mouse DLA cells at 100 ug/ml after 12 hrs by AO/EtBr staining based fluorescence microscopic analysis; format: functional
DLA [5] = assay: Induction of apoptosis in Swiss albino mouse DLA cells assessed as membrane blebbing at 25,50 and 100 ug/ml after 12 hrs by AO/EtBr staining based fluorescence microscopic analysis; format: functional, cell-based
DLA [6] = assay: Induction of apoptosis in Swiss albino mouse DLA cells assessed as nuclear fragmentation at 25,50 and 100 ug/ml after 12 hrs by AO/EtBr staining based fluorescence microscopic analysis; format: functional, cell-based
DLA [7] = assay: Induction of apoptosis in Swiss albino mouse DLA cells assessed as cytoplasmic vacuoles at 50 and 100 ug/ml after 12 hrs by AO/EtBr staining based fluorescence microscopic analysis; format: functional, cell-based
DLA [8] = assay: Induction of apoptosis in Swiss albino mouse DLA cells assessed as cell shrinkage at 25,50 and 100 ug/ml after 12 hrs by AO/EtBr staining based fluorescence microscopic analysis; format: functional
Escherichia coli = assay: Antibacterial activity against clinical isolates Escherichia coli after 24 hrs by agar diffusion assay; format: functional
Pseudomonas syringae = assay: Antibacterial activity against clinical isolate Gram-negative Pseudomonas syringae after 24 hrs by agar diffusion assay; format: functional
Staphylococcus aureus = assay: Antibacterial activity against clinical isolates Staphylococcus aureus after 24 hrs by agar diffusion assay; format: functional

| Structure (SMILES) | Activity (DLA [1]) | MIC (Proteus vulgaris) [µg/mL] | Activity (DLA [2]) | Activity (DLA [3]) | MIC (Bacillus subtilis) [µg/mL] | Activity [4] [%] | Activity (DLA [5]) | Activity (DLA [6]) | Activity (DLA [7]) | Activity (DLA [8]) | MIC (Escherichia coli) [µg/mL] | MIC (Pseudomonas syringae) [µg/mL] | MIC (Staphylococcus aureus) [µg/mL] |
| --- | --- | --- | --- | --- | --- | --- | --- | --- | --- | --- | --- | --- | --- |
| Cc1[nH][nH]c(=O)c1[C@@H](c1ccc(Cl)cc1)c1c(O)[nH]c(=O)[nH]c1=O | Active | 100 (≈ 287 µM) | Active | Active | 25 (≈ 71.7 µM) | 18 | Active | Active | Active | Active |  |  |  |
| Cc1[nH][nH]c(=O)c1[C@@H](c1ccc([N+](=O)[O-])cc1)c1c(O)[nH]c(=O)[nH]c1=O | Active | 100 (≈ 278 µM) | Active | Active | 100 (≈ 278 µM) | 12 | Active | Active | Active | Active |  |  |  |
| Cc1[nH][nH]c(=O)c1[C@@H](c1cccc([N+](=O)[O-])c1)c1c(O)[nH]c(=S)[nH]c1=O | Active |  |  |  |  |  | Active | Active |  | Active |  |  |  |
| Cc1[nH][nH]c(=O)c1[C@@H](c1ccccc1[N+](=O)[O-])c1c(O)[nH]c(=O)[nH]c1=O | Active | 100 (≈ 278 µM) |  |  | 100 (≈ 278 µM) |  | Active | Active |  | Active | 100 (≈ 278 µM) | 100 (≈ 278 µM) |  |
| Cc1[nH][nH]c(=O)c1[C@@H](c1ccc(F)cc1)c1c(O)[nH]c(=S)[nH]c1=O | Active |  |  |  |  |  | Active | Active |  | Active |  |  |  |
| Cc1[nH][nH]c(=O)c1[C@@H](c1ccc(Cl)cc1)c1c(O)[nH]c(=S)[nH]c1=O | Active | 100 (≈ 274 µM) |  |  | 100 (≈ 274 µM) |  | Active | Active |  | Active |  |  |  |
| Cc1[nH][nH]c(=O)c1[C@@H](c1cccc(O)c1)c1c(O)[nH]c(=O)[nH]c1=O | Active | 100 (≈ 303 µM) |  |  | 25 (≈ 75.7 µM) |  | Active | Active |  | Active |  |  | 100 (≈ 303 µM) |
| COc1ccccc1[C@H](c1c(C)[nH][nH]c1=O)c1c(O)[nH]c(=O)[nH]c1=O | Active | 100 (≈ 290 µM) |  |  | 100 (≈ 290 µM) |  | Active | Active |  | Active | 100 (≈ 290 µM) | 100 (≈ 290 µM) | 100 (≈ 290 µM) |
| NC[C@H]1O[C@H](O[C@H]2[C@H](O)[C@@H](O[C@H]3O[C@H](CO)[C@@H](O)[C@H](N)[C@H]3O)[C@H](N)C[C@@H]2N)[C@H](O)[C@@H](O)[C@@H]1O [KANAMYCIN] |  | 5 (≈ 10.3 µM) |  |  | 5 (≈ 10.3 µM) |  |  |  |  |  | 5 (≈ 10.3 µM) | 10 (≈ 20.6 µM) | 80 (≈ 165 µM) |
| CCC[C@H](c1c(C)[nH][nH]c1=O)c1c(O)[nH]c(=O)[nH]c1=O | Active |  | Active | Active | 100 (≈ 357 µM) | 12 | Active | Active | Active | Active |  |  |  |
| CCCC[C@H](c1c(C)[nH][nH]c1=O)c1c(O)[nH]c(=O)[nH]c1=O | Active |  |  |  |  |  | Active | Active |  | Active |  |  |  |
| Cc1[nH][nH]c(=O)c1[C@@H](c1cccc(Br)c1)c1c(O)[nH]c(=O)[nH]c1=O | Active | 100 (≈ 254 µM) | Active | Active | 25 (≈ 63.6 µM) | 13 | Active | Active | Active | Active |  | 100 (≈ 254 µM) |  |
| CCC[C@H](c1c(C)[nH][nH]c1=O)c1c(O)[nH]c(=S)[nH]c1=O | Active |  |  |  | 100 (≈ 337 µM) |  | Active | Active |  | Active |  |  |  |
| Cc1[nH][nH]c(=O)c1[C@@H](c1ccccc1Cl)c1c(O)[nH]c(=O)[nH]c1=O | Active | 100 (≈ 287 µM) |  |  | 100 (≈ 287 µM) |  | Active | Active |  | Active | 100 (≈ 287 µM) | 100 (≈ 287 µM) | 100 (≈ 287 µM) |
| COc1ccc([C@H](c2c(C)[nH][nH]c2=O)c2c(O)[nH]c(=O)[nH]c2=O)cc1 | Active | 100 (≈ 290 µM) | Active | Active | 100 (≈ 290 µM) | 15 | Active | Active | Active | Active |  |  |  |
| Cc1[nH][nH]c(=O)c1[C@@H](c1ccccc1)c1c(O)[nH]c(=S)[nH]c1=O | Active |  |  |  |  |  | Active | Active |  | Active |  |  |  |
| Cc1[nH][nH]c(=O)c1[C@@H](c1cccnc1)c1c(O)[nH]c(=O)[nH]c1=O | Active |  |  |  | 100 (≈ 317 µM) |  | Active | Active |  | Active |  |  |  |
| Cc1[nH][nH]c(=O)c1[C@@H](c1ccc(F)cc1)c1c(O)[nH]c(=O)[nH]c1=O | Active | 100 (≈ 301 µM) |  |  | 100 (≈ 301 µM) |  | Active | Active |  | Active |  | 25 (≈ 75.2 µM) |  |
| CC1(C)S[C@@H]2[C@H](NC(=O)[C@H](N)c3ccccc3)C(=O)N2[C@H]1C(=O)O [AMPICILLIN] |  | 5 (≈ 14.3 µM) |  |  | 5 (≈ 14.3 µM) |  |  |  |  |  | 5 (≈ 14.3 µM) | 5 (≈ 14.3 µM) | 5 (≈ 14.3 µM) |
| CCOC(=O)[C@H](c1c(C)[nH][nH]c1=O)c1c(O)[nH]c(=O)[nH]c1=O | Active | 100 (≈ 322 µM) | Active | Active | 100 (≈ 322 µM) | 23 | Active | Active | Active | Active | 100 (≈ 322 µM) | 100 (≈ 322 µM) | 100 (≈ 322 µM) |
| Cc1[nH][nH]c(=O)c1[C@@H](c1cccc([N+](=O)[O-])c1)c1c(O)[nH]c(=O)[nH]c1=O | Active | 100 (≈ 278 µM) | Active | Active | 100 (≈ 278 µM) | 15 | Active | Active | Active | Active |  |  |  |
| Cc1[nH][nH]c(=O)c1[C@@H](c1ccccc1)c1c(O)[nH]c(=O)[nH]c1=O | Active | 100 (≈ 318 µM) |  |  | 100 (≈ 318 µM) |  | Active | Active |  | Active |  |  |  |
